Values joined by “and” are separate entries in the source; they are usually repeats but may differ in a detail not shown here. Identical values can stand only once. “Also recorded” adds a separate entry of the source. Like-named read-outs stand apart in the source and are kept apart here.

Series [1] deals with human embryonic kidney (HEK293) cells. The series is described as follows: MTS cytotoxicity assay in HEK293 cells. It is filed as cell-based. The following applies: 72 hours, mean ± SD n = 3. On the procedure:
(§1) The assay was performed as follows. To determine the cell growth inhibition ability of the synthesized compounds the (3-(4,5-dimethylthiazol-2-yl)-5-(3-carboxymethoxyphenyl)-2-(4-sulfophenyl)-2H-tetrazolium) (MTS) assay used according to the manufacturer's recommended protocol. Stock solutions of the synthesized compounds were prepared in DMSO. Cells were seeded at a density of 1×10^5 cells in 96-well plates. After 24 hours, cells were treated at the indicated concentrations of test compounds, limiting the final DMSO concentration to less than 1%. After incubation at 37° C. in an environment of 5% CO2 for 48-72 hours, 10 μL of MTS reagent (CellTiter 96© AQueous One Solution Reagent) was added to each well and incubated at the above mentioned conditions for 2-4 hr. Absorbance was recorded at 490 nm on a BioTek Synergy Mx multimode plate reader and the viability of cells were plotted as percentage of controls.
Cytotoxicity was also evaluated by using the low tumorigenic HEK293 cells at 50 μM concentration.
A general note: Tetrazolium assays rely on reduction of a dye to a coloured formazan, in cell work by metabolically active cells.

For series [2], the system named is 22Rv1 prostate cancer cells. The series is described as follows: MTS cytotoxicity assay in 22Rv1 prostate cancer cells. The following applies: Homo sapiens; for cytotoxicity at 100 µM: 22Rv1, 48 h, read-out: reduction of 22Rv1 cell viability. The method, then:
as §1

In series [3] the test system is MDA-MB-468 triple negative breast cancer cells. The series is described as follows: MTS cytotoxicity assay in MDA-MB-468 triple negative breast cancer cells. In kind it is cell-based. The following applies: Homo sapiens, MDA-MB-468; 72 hours; mean ± SD n = 3. On the procedure: The assay was performed as follows.
Derivatives were dosed at 10, 50 and 100 μM for 24, 48 and 72 hours and cell viability measured by MTS assay (FIG. 5).

Series [4] relates to Mitochondrial respiratory complex II (CII). The following applies: literature, cited from earlier work.
The target in series [5] is T1, Mitochondrial respiratory complex II (Rattus norvegicus, UniProt P21913+Q641Z9+Q6PCT8+Q920L2).
T1 construct: measured spectrophotometrically using isolated rat heart mitochondria; from tissue; host or cells: rat heart mitochondria / sub-mitochondrial particles
The series is described as follows: Mitochondrial respiratory complex II inhibition assay. It is filed as biochemical. Particulars: for inhibition at 100 µM: read-out: inhibition of CII. The method, then: The assay was performed as follows. Mitochondria were isolated either from fresh rat hearts or by differential centrifugation in sucrose-based buffer as previously described.^24 Complex II enzymatic activity was determined spectrophotometrically as the rate of succinate-driven, co-enzyme Q2-linked reduction of dichlorophenolindophenol (DCPIP).^49 Mitochondria or sub-mitochondrial particles were incubated in phosphate buffer (pH 7.4) containing 40 μM DCPIP, 1 mM KCN, 10 μM rotenone, and 50 μM co-enzyme Q2. The rate of reduction of DCPIP to DCPIPH2 was followed at […] (ε=21,000 M-1). Varying amounts of succinate and inhibitors were used to determine an IC50 value. At the end of each run thenoyltrifluoroacetone (1 mM) was added and the residual TTFA-insensitive rate subtracted.

Series [6] deals with VEGF-induced proliferation of HUVEC cells. The series is described as follows: VEGF-induced HUVEC proliferation, MTT assay. In kind it is cell-based, human. The following applies: for inhibition of VEGF-induced HUVEC proliferation (in words): 20 μM; for inhibition at 20 µM: Homo sapiens, read-out: % Inhibition of Proliferation. The method in brief:
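HUVECs starved 24 h in 0.1% BSA/0.1% FBS basal medium, then treated 48 h with VEGF (10 ng/mL) alone or with compounds at 20 μM (DMSO <1%). Proliferation by MTT (2 h, 37° C), formazan dissolved in acidified isopropanol, absorbance at 570 nm.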

In series [7] the test system is phosphorylated vascular endothelial growth factor receptor-2 (VEGFR2). The series is described as follows: Western blot of pVEGFR2 in VEGF-treated HUVEC cells. It is filed as cell-based, human. Particulars: 20 μM, VEGF 10 ng/mL, 5 min. The method, then:
Cells were treated with test compounds (20 μM) along with VEGF (10 ng/mL) for 5 min. The DMSO was used as a negative control, whereas DMSO+VEGF was used as a positive control. Cells were lysed using RIPA buffer (10 mmol/L Tris-HCl, 1 mmol/L EDTA, 0.5 mmol/L EGTA, 1% Triton X-100, 0.1% sodium deoxycholate, 0.1% SDS and 140 mmol/L NaCl), supplemented with protease and phosphatase inhibitors (Halt Protease and Phosphatase Inhibitor). Cell lysates were centrifuged, and the supernatants were mixed with appropriate amount of 5×SDS loading buffer. Proteins were resolved on polyacrylamide gel and transferred onto nitrocellulose/PVDF membrane, blocked for 1 hour with 10% milk block prepared in 0.1% Tween 20 in 1×PBS (PBST), and treated with pVEGFR2 primary antibody at 4° C. overnight. The membrane was washed thrice with PBST, 5 minutes each, and treated with secondary antibody for 1 hour. The membrane was further washed three times, 5 minutes each, with PBST and developed using chemiluminescence, and the bands were analyzed using densitometry.
(Immunoblotting shows a protein as a band on a membrane.)

The mark [8] stands for this setting: 100 μM, relative to DMSO control.
The mark [9] stands for this setting: HUVEC, 48 h, 20 μM compound, VEGF 10 ng/mL, HUVEC, 48 h, relative to VEGF treated cells, mean ± SEM n = 3.

T1 sequence (Q920L2 35-656): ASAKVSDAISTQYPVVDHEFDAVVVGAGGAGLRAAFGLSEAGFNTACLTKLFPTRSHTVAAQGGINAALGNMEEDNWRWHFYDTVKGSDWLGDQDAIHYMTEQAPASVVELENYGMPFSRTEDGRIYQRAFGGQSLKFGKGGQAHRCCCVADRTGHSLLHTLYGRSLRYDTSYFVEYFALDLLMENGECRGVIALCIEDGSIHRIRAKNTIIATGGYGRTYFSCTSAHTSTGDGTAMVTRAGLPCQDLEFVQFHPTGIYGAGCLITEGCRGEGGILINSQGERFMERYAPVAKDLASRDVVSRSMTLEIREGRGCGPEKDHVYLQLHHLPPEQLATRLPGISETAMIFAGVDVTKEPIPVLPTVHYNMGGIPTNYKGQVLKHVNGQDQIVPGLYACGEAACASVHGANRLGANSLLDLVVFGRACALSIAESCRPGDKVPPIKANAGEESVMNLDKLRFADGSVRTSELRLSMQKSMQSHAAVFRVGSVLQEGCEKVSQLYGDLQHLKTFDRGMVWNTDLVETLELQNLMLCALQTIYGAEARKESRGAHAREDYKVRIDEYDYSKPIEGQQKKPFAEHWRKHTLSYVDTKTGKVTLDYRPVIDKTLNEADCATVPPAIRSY
T1 sequence (P21913 31-282): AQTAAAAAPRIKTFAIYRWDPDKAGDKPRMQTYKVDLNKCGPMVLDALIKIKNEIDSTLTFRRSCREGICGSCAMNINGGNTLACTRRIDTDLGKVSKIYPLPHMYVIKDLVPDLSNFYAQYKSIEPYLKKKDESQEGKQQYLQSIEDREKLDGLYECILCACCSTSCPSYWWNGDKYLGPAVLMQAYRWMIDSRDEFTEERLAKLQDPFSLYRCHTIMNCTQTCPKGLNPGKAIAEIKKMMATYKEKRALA
T1 sequence (Q641Z9 1-169): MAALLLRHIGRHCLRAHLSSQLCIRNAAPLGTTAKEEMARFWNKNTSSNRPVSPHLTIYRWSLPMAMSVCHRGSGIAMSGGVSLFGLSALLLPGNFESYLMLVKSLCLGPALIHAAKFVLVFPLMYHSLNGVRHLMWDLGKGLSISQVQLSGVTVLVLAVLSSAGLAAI
T1 sequence (Q6PCT8 57-159): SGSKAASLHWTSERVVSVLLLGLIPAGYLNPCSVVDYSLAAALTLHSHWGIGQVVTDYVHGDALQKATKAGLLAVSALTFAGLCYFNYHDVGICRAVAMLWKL

For orientation: IC50 means the concentration needed to halve the response being measured. For the compound `CCCCCC(=O)c1c(O)nc(OC)c(OC)c1O` [AA5-16c, reference compound], the IC50 in series [1] is 25.9 ± 2.4 µM; in series [3], 6.71 ± 0.8 µM; in series [4], 0.064 µM. Further, in series [2] (22Rv1, read-out: reduction of 22Rv1 cell viability), the cytotoxicity at 20 µM is 60%. Further, in series [4], the ligand-lipophilicity efficiency is reported as 5.62.
For `COc1[nH]c(=O)c(C(=O)[C@@H](C)C[C@H](C)[C@@H](Cl)CCl)c(O)c1OC` [Atpenin A5, reference compound], the “inhibition of CII” value in series [5] (0.1 μM) was determined as 93%. Further, the concentration for half-maximal inhibition (IC50) in series [5] (positive control, read-out: CII IC50) is 0.0033 µM; in series [4], 0.0033 µM; in series [4] (listed as atpenin A5) it was 0.0036 to 0.01 µM.
For `O=S1(=O)N=C(NCc2ccccc2)Nc2cc(Cl)ccc21` [Compound 21b, 3-(benzylamino)-6-chloro-4H-benzo[e][1,2,4]thiadiazine 1,1-dioxide], in series [5] (setting [8]), the “inhibition of CII” value was “inactive” and the inhibition at 100 µM was determined as 0%. Moreover, the IC50 in series [1] came out at 102 ± 16.1 µM. The cytotoxicity at 100 µM in series [2] is about 35%. In addition, the “% Inhibition of Proliferation” value in series [6] (20 μM compound, VEGF 10 ng/mL, HUVEC, 48 h, relative to VEGF treated cells, mean ± SEM n = 3, 20 µM) was 200±12% and 125±10%. The “inhibition of VEGF-induced HUVEC proliferation (in words)” value (“inhibition … (in words)” for short) in series [6] (VEGF 10 ng/mL) is “suppressed HUVEC proliferation; also recorded: enhanced activity”. In series [3], this compound came in with an IC50 of 64.2 ± 14.2 µM.
On to `O=S1(=O)N=C(NCCCc2ccccc2)Nc2cc(Cl)ccc21` [Compound 23b, 6-chloro-3-((3-phenylpropyl)amino)-4H-benzo[e][1,2,4]thiadiazine 1,1-dioxide], for which the inhibition at 100 µM in series [5] (setting [8]) was determined as 30%. For the same compound, the IC50 was 111 ± 7.4 µM in series [1] and 91.9 ± 16.8 µM in series [3]. Besides, the cytotoxicity at 100 µM in series [2] is about 35%. For the same compound, the “inhibition … (in words)” value in series [6] (VEGF 10 ng/mL) is given as “suppressed HUVEC proliferation; also recorded: enhanced activity”. In addition, the inhibition at 20 µM in series [6] (setting [9]) came to 178 ± 8%.
`CC(NC1=NS(=O)(=O)c2ccccc2N1)c1ccccc1` (centres unmarked) [Compound 24d, 3-((1-phenylethyl)amino)-4H-benzo[e][1,2,4]thiadiazine 1,1-dioxide]: the “attenuation of pVEGFR2 expression” value in series [7] is recorded as “outperformed the parent compound; also recorded: most potent”. The cytotoxicity at 100 µM in series [2] was about 30%.
Turning to `O=S1(=O)N=C(NCc2ccc(OC(F)(F)F)cc2)Nc2cc(Cl)ccc21` [Compound 30b, 6-chloro-3-((4-(trifluoromethoxy)benzyl)amino)-4H-benzo[e][1,2,4]thiadiazine 1,1-dioxide], the “attenuation of pVEGFR2 expression” value in series [7] is reported as “outperformed the parent compound; also recorded: most potent”. Besides, the IC50 in series [1] was determined as 77.2 µM; in series [3], 48 µM. For the same compound, in series [6] (VEGF 10 ng/mL), the “inhibition … (in words)” value is “suppressed HUVEC proliferation; also recorded: enhanced activity”. Also, the inhibition at 20 µM in series [6] (setting [9]) was 196 ± 11%.
Turning to `O=S1(=O)N=C(NCc2ccc(OC(F)(F)F)cc2)Nc2ccc(Br)cc21` [Compound 30c, 7-bromo-3-((4-(trifluoromethoxy)benzyl)amino)-4H-benzo[e][1,2,4]thiadiazine 1,1-dioxide], in series [7], the “attenuation of pVEGFR2 expression” value is “outperformed the parent compound”. Besides, the inhibition at 100 µM in series [5] (setting [8]) was 21%. For the same compound, the cytotoxicity at 100 µM in series [2] came to 45%.
As to `Cc1cccc(CNC2=NS(=O)(=O)c3cc(Cl)ccc3N2)c1` [Compound 58e, 7-Chloro-3-((3-methylbenzyl)amino)-4H-benzo[e][1,2,4]thiadiazine1,1-dioxide], the “attenuation of pVEGFR2 expression” value in series [7] was “outperformed the parent compound”. In addition, the “inhibition … (in words)” value in series [6] (VEGF 10 ng/mL) is reported as “suppressed HUVEC proliferation; also recorded: enhanced activity”. Also, the inhibition at 20 µM in series [6] (HUVEC, 48 h) was determined as 145 ± 6%.
Turning to `O=S1(=O)N=C(NC2CCCC2)Nc2ccc(Cl)cc21` [Compound 59e, 7-Chloro-3-(cyclopentylamino)-4H-benzo[e][1,2,4]thiadiazine 1,1-dioxide], the “attenuation of pVEGFR2 expression” value in series [7] is on record as “outperformed the parent compound; also recorded: most potent”. Moreover, the “inhibition … (in words)” value in series [6] (VEGF 10 ng/mL) is “suppressed HUVEC proliferation; also recorded: enhanced activity”. For the same compound, the inhibition at 20 µM in series [6] (setting [9]) turned out to be 133 ± 6%.
Consider `COc1cccc(CNC2=NS(=O)(=O)c3cc(Cl)ccc3N2)c1` [Compound 62e, 7-Chloro-3-((3-methoxybenzyl)amino)-4H-benzo[e][1,2,4]thiadiazine 1,1-dioxide], for which, in series [7], the “attenuation of pVEGFR2 expression” value is on record as “outperformed the parent compound; also recorded: most potent”. Besides, the “inhibition … (in words)” value in series [6] (VEGF 10 ng/mL) was “suppressed HUVEC proliferation; also recorded: enhanced activity”. For the same compound, in series [6] (HUVEC, 48 h), the inhibition at 20 µM was found to be 96 ± 16%.
As for `O=C(O)CC(=O)O` [Malonate], the IC50 in series [4] was 40 µM.
For the compound `O=C(CC(=O)C(F)(F)F)c1cccs1` [Thenoyltrifluoroacetone], the IC50 in series [4] is 30 µM.
Consider `Cc1c(C)c2c(c(C)c1OC(=O)CCC(=O)O)CC[C@@](C)(CCC[C@H](C)CCC[C@H](C)CCCC(C)C)O2` [α-Tocopheryl succinate], for which, in series [4], the IC50 is 42 µM.

The values are drawn from patent publication US20230219912A1, “HALOGENATED BENZOTHIADIAZINES FOR THE TREATMENT OF CANCER” (BOARD OF REGENTS OF THE UNIVERSITY OF NEBRASKA, priority 2020, published 2023).
